Test results as given in US9556228B2 (Universitaet Leipzig, priority 2011, dated 2017).
≈ marks a conversion by molar mass, not a printed value. Peptide text beside a SMILES is read from it. * marks the point of attachment. Orn(α-tetramethylguanidino) = CN(C)C(=N[C@@H](CCCN)C(=O)*)N(C)C

How the values were obtained:
[1] = test system: Staphylococcus aureus DSM 1104/ATCC 25923; format: cell-based
Description: (§1) The minimum inhibitory concentrations (MIC) of the peptides were determined in a double assay of triplicates using a positive control sample (gentamycin) and a negative control sample (0.9% NaCl solution), according to a modified protocol from Wiegand et al. (Wiegand, 2008).
(§2) For this purpose, the peptides were dissolved in water and were diluted in a double dilution series with 1/8 MH (eight-fold diluted Mueller-Hinton-Medium—2.6 g/L, Merck) in sterile 96-well, plates (Greiner Bio-One GmbH) in twelve dilution steps from 128 μg/mL to 62.5 ng/mL. Overnight cultures were adjusted using ⅛ MHB to approximately 1.5×10^7 colony forming units per mL. Of these, 50 μL of peptide solution per well was mixed with 50 μL bacteria solution each to obtain an initial concentration of […] bacteria per well. After 20 hours of incubation at 37′C, the absorption was determined at 595 nm (microplate reader, Wallac Victor3, Perkin Elmer). The minimum inhibitory concentration was identified as the lowest peptide concentration at which no bacterial growth could be detected.
(§3) In the experiment, the antibacterial activity of the peptides according to the invention in relation to the following bacterial strains was analyzed: Pseudomonas aeruginosa PAO1 (wt strain), Pseudomonas aeruginosa DSM 9644, Staphylococcus aureus DSM 1104/ATCC 25923, Staphylococcus aureus ATCC 6247, Escherichia coli UB 1005 (F—, nalA37, metB1) and Escherichia coli ATCC25922.

[2] = test system: Pseudomonas aeruginosa PAO1 (wt strain); format: cell-based
Description: as §1, §2, §3

S. aureus DSM 6247 [3] = format: cell-based, Staphylococcus aureus
Description: as §1, §2, §3

Escherichia coli UB 1005 = assay: Minimum inhibitory concentration (MIC), broth microdilution; format: cell-based
Description: as §1, §2, §3

[4] = test system: Pseudomonas aeruginosa DSM 9644; format: cell-based
Description: as §1
(§4) […] Overnight cultures were adjusted using ⅛ MHB to approximately 1.5×10^7 colony forming units per mL. Of these, 50 μL of peptide solution per well was mixed with 50 μL bacteria solution each to obtain an initial concentration of […] bacteria per well. After 20 hours of incubation at 37′C, the absorption was determined at 595 nm (microplate reader, Wallac Victor3, Perkin Elmer). The minimum inhibitory concentration was identified as the lowest peptide concentration at which no bacterial growth could be detected.
as §3

[5] = test system: Escherichia coli ATCC25922; format: cell-based
E. coli DSM 1103 = format: cell-based, Escherichia coli
Description: as §1, §2

in vitro = conditions: mouse
Description: The serum stability of selected apidaecin derivatives was also measured.

K. pneumoniae DSM 681 = format: cell-based
Description: as §1, §4

S. aureus DSM 6247 [6] = format: cell-based, Staphylococcus aureus; remark: listed apart in the source
E. coli BL21AI = format: cell-based, Escherichia coli

SMILES | MIC S. aureus DSM 6247 (S. aureus DSM 6247 [3]) [µg/mL] | MIC P. aeruginosa PAO DSM 9644 [4] [µg/mL] | MIC E. coli DSM 1103 (E. coli DSM 1103) [µg/mL] | MIC K. pneumoniae DSM 681 TSB (K. pneumoniae DSM 681) [µg/mL] | MIC S. aureus DSM 6247 MHB (S. aureus DSM 6247 [6]) [µg/mL] | MIC P. aeruginosa DSM 9644 TSB [4] [µg/mL] | MIC E. coli BL21AI TSB (E. coli BL21AI) [µg/mL] | MIC E. coli ATCC 25922 TSB [5] [µg/mL] | also measured
CC[C@H](C)[C@H](NC(=O)[C@H](Cc1ccc(O)cc1)NC(=O)[C@@H](NC(=O)[C@@H]1CCCN1C(=O)[C@H](CCCNC(=N)N)NC(=O)[C@H](CC(N)=O)NC(=O)[C@H](CC(N)=O)NC(=O)CN)C(C)C)C(=O)N1CCC[C@H]1C(=O)N[C@@H](CCCNC(=N)N)C(=O)N1CCC[C@H]1C(=O)N[C@@H](CCCNC(=N)N)C(=O)N[C@@H](CCCNC(=N)N)C(=O)N1CCC[C@H]1C(=O)N[C@@H](Cc1c[nH]cn1)C(=O)N1CCC[C@H]1C(=O)N[C@@H](CCCNC(=N)N)C(=O)N[C@@H](CC(C)C)C(N)=O [compound 64] (H-GNNRPVYIPRPRRPHPRL-NH2; N-terminus assumed) | 2 (≈ 0.911 µM) | 32 (≈ 14.6 µM) | – | – | – | – | – | – | MIC S. aureus ATCC 25923 ([1]; DSM 1104): 4 µg/mL (≈ 1.82 µM); MIC S. aureus DSM 1104/ATCC 25923 ([1]; DSM 1104): 4 µg/mL (≈ 1.82 µM); Improvement over Native Sequence (SEQ No. 2) S. aureus ATCC 25923 ([1]; fold, from MIC in 1/8 MHB): 64; MIC P. aeruginosa PAO1 wt ([2]; PAO1): 64 µg/mL (≈ 29.2 µM); Improvement over Native Sequence (SEQ No. 2) P. aeruginosa PAO1 wt ([2]; fold, from MIC in 1/8 MHB): 8; MIC E. coli UB1005 (Escherichia coli UB 1005; 1/8 MHB, Table 4): 2.5 µg/mL (≈ 1.14 µM); Improvement over Native Sequence (SEQ No. 2) E. coli UB1005 (Escherichia coli UB 1005; fold, from MIC in 1/8 MHB): 2; MIC E. coli ATCC 25922 [5]: 8 µg/mL (≈ 3.65 µM)
CC[C@H](C)[C@H](NC(=O)[C@H](Cc1ccc(O)cc1)NC(=O)[C@@H](NC(=O)[C@@H]1CCCN1C(=O)[C@H](CCCNC(=N)N)NC(=O)[C@H](CC(N)=O)NC(=O)[C@H](CC(N)=O)NC(=O)[C@H](CCCN)N=C(N(C)C)N(C)C)C(C)C)C(=O)N1CCC[C@H]1C(=O)N[C@@H](CCCNC(=N)N)C(=O)N1CCC[C@H]1C(=O)N[C@@H](CCCNC(=N)N)C(=O)N1CCC[C@H]1C(=O)N1CCC[C@H]1C(=O)N[C@@H](Cc1c[nH]cn1)C(=O)N1CCC[C@H]1C(=O)N[C@@H](CCCNC(=N)N)C(=O)N[C@@H](CCCNC(=N)N)C(=O)O [compound 84] ({Orn(α-tetramethylguanidino)}-NNRPVYIPRPRPPHPRR-OH) | 8 (≈ 3.43 µM) | 64 (≈ 27.4 µM) | 4 (≈ 1.71 µM) | – | – | – | – | – | –
CC[C@H](C)[C@H](NC(=O)[C@H](Cc1ccc(O)cc1)NC(=O)[C@@H](NC(=O)[C@@H]1CCCN1C(=O)[C@H](CCCNC(=N)N)NC(=O)[C@H](CC(N)=O)NC(=O)[C@H](Cc1c[nH]c2ccccc12)NC(=O)[C@H](CCCN)N=C(N(C)C)N(C)C)C(C)C)C(=O)N1CCC[C@H]1C(=O)N[C@@H](CCCNC(=N)N)C(=O)N1CCC[C@H]1C(=O)N[C@@H](CCCNC(=N)N)C(=O)N1CCC[C@H]1C(=O)N1CCC[C@H]1C(=O)N[C@@H](Cc1c[nH]cn1)C(=O)N1CCC[C@H]1C(=O)N[C@@H](CCCNC(=N)N)C(=O)N[C@@H](CC(C)C)C(=O)O [compound 85] ({Orn(α-tetramethylguanidino)}-WNRPVYIPRPRPPHPRL-OH; N-terminus and C-terminus assumed) | 16 (≈ 6.77 µM) | 16 (≈ 6.77 µM) | 4 (≈ 1.69 µM) | 2 (≈ 0.846 µM) | 4 (≈ 1.69 µM) | 8 to 16 | 2 (≈ 0.846 µM) | 4 (≈ 1.69 µM) | half-life (in vitro; 100% mouse serum): 3.95 ± 0.25 h
CC[C@H](C)[C@H](NC(=O)[C@H](Cc1ccc(O)cc1)NC(=O)[C@@H](NC(=O)[C@@H]1CCCN1C(=O)[C@H](CCCNC(=N)N)NC(=O)[C@H](CC(N)=O)NC(=O)[C@H](CC(N)=O)NC(=O)[C@H](CCCN)N=C(N(C)C)N(C)C)C(C)C)C(=O)N1CCC[C@H]1C(=O)N[C@@H](CCCNC(=N)N)C(=O)N1CCC[C@H]1C(=O)N[C@@H](CCCNC(=N)N)C(=O)N[C@@H](CCCNC(=N)N)C(=O)N1CCC[C@H]1C(=O)N[C@@H](Cc1c[nH]cn1)C(=O)N1CCC[C@H]1C(=O)N[C@@H](CCCNC(=N)N)C(=O)N[C@@H](CC(C)C)C(=O)O [compound 86] ({Orn(α-tetramethylguanidino)}-NNRPVYIPRPRRPHPRL-OH) | 32 (≈ 13.6 µM) | 32 (≈ 13.6 µM) | 8 (≈ 3.4 µM) | – | – | – | – | – | –
CC[C@H](C)[C@H](NC(=O)[C@H](Cc1ccc(O)cc1)NC(=O)[C@@H](NC(=O)[C@@H]1CCCN1C(=O)[C@H](CCCNC(=N)N)NC(=O)[C@H](CC(N)=O)NC(=O)[C@H](CC(N)=O)NC(=O)[C@H](CCCN)N=C(N(C)C)N(C)C)C(C)C)C(=O)N1CCC[C@H]1C(=O)N[C@@H](CCCNC(=N)N)C(=O)N1CCC[C@H]1C(=O)N[C@@H](CCCNC(=N)N)C(=O)N[C@@H](CCCNC(=N)N)C(=O)N1CCC[C@H]1C(=O)N[C@@H](Cc1c[nH]cn1)C(=O)N1CCC[C@H]1C(=O)N[C@@H](CCCNC(=N)N)C(=O)N[C@@H](CC(C)C)C(N)=O [compound 88] ({Orn(α-tetramethylguanidino)}-NNRPVYIPRPRRPHPRL-NH2) | 16 (≈ 6.81 µM) | 16 (≈ 6.81 µM) | 8 (≈ 3.4 µM) | – | – | – | – | – | –
CC[C@H](C)[C@H](NC(=O)[C@H](Cc1ccc(O)cc1)NC(=O)[C@@H](NC(=O)[C@@H]1CCCN1C(=O)[C@H](CCCNC(=N)N)NC(=O)[C@H](CC(N)=O)NC(=O)[C@H](CC(N)=O)NC(=O)[C@H](CCCN)N=C(N(C)C)N(C)C)C(C)C)C(=O)N1CCC[C@H]1C(=O)N[C@@H](CCCNC(=N)N)C(=O)N1CCC[C@H]1C(=O)N[C@@H](CCCNC(=N)N)C(=O)N1CCC[C@H]1C(=O)N1CCC[C@H]1C(=O)N[C@@H](Cc1c[nH]cn1)C(=O)N1CCC[C@H]1C(=O)N[C@@H](CCCNC(=N)N)C(=O)N[C@@H](CC(C)C)C(N)=O [compound 92] ({Orn(α-tetramethylguanidino)}-NNRPVYIPRPRPPHPRL-NH2; N-terminus and C-terminus assumed) | – | – | – | 2 (≈ 0.873 µM) | 8 (≈ 3.49 µM) | 8 (≈ 3.49 µM) | 1 (≈ 0.437 µM) | 2 (≈ 0.873 µM) | half-life (in vitro; 25% mouse serum): 0.25 ± 0.0167 h
CC[C@H](C)[C@H](NC(=O)[C@H](Cc1ccc(O)cc1)NC(=O)[C@@H](NC(=O)[C@@H]1CCCN1C(=O)[C@H](CCCNC(=N)N)NC(=O)[C@H](CC(N)=O)NC(=O)[C@H](CC(N)=O)NC(=O)[C@H](CCCN)N=C(N(C)C)N(C)C)C(C)C)C(=O)N1CCC[C@H]1C(=O)N[C@@H](CCCNC(=N)N)C(=O)N1CCC[C@H]1C(=O)N[C@@H](CCCNC(=N)N)C(=O)N1CCC[C@H]1C(=O)N1CCC[C@H]1C(=O)N[C@@H](Cc1c[nH]cn1)C(=O)N1CCC[C@H]1C(=O)N[C@@H](CCCNC(=N)N)C(=O)N[C@@H](CC(C)C)C(=O)O [compound 93] ({Orn(α-tetramethylguanidino)}-NNRPVYIPRPRPPHPRL-OH; N-terminus and C-terminus assumed) | – | – | – | 2 (≈ 0.873 µM) | 16 to 32 | 16 (≈ 6.98 µM) | 1 (≈ 0.436 µM) | 4 (≈ 1.75 µM) | half-life (in vitro; 100% mouse serum): 5.83 ± 0.567 h
